Experiments:
[1] = tested on: Green Peach Aphid (Myzus persicae) (MYZUPE); assay: Bioassay on Green Peach Aphid (GPA), foliar spray on cabbage seedlings; type: in vivo; conditions: 200 ppm spray on cabbage leaves, graded after three days, live aphids, Abbott's correction
Description: Several molecules disclosed herein were tested against GPA using procedures described below.
Cabbage seedling grown in 3-in pots, with 2-3 small (3-5 cm) true leaves, were used as test substrate. The seedlings were infested with […] (wingless adult and nymph stages) one day prior to chemical application. Four pots with individual seedlings were used for each treatment. Test compounds (2 mg) were dissolved in 2 mL of acetone/MeOH (1:1) solvent, forming stock solutions of 1000 ppm test compound. The stock solutions were diluted 5× with 0.025% Tween 20 in water to obtain the solution at 200 ppm test compound. A hand-held aspirator-type sprayer was used for spraying a solution to both sides of the cabbage leaves until runoff. Reference plants (solvent check) were sprayed with the diluent only containing 20% by volume acetone/MeOH (1:1) solvent. Treated plants were held in a holding room for three days at approximately 25° C. and ambient relative humidity (RH) prior to grading. Evaluation was conducted by counting the number of live aphids per plant under a microscope. Percent Control was measured by using Abbott's correction formula (W. S. Abbott, “A Method of Computing the Effectiveness of an Insecticide” J. Econ. Entomol 18 (1925), pp. 265-267) as follows. Corrected % Control=100*(X−Y)/X • where • X=No. of live aphids on solvent check plants and • Y=No. of live aphids on treated plants
The results are indicated in the table entitled “Table 1: GPA (MYZUPE) and sweetpotato whitefly-crawler (BEMITA) Rating Table”.

[2] = tested on: Sweetpotato Whitefly Crawler (Bemisia tabaci) (BEMITA); assay: Bioassay on Sweetpotato Whitefly Crawler, foliar spray on cotton plants; type: in vivo; conditions: 200 ppm spray on cotton leaf, graded after 8-9 days, live nymphs, Abbott's correction
Description: Cotton plants grown in 3-inch pots, with 1 small (3-5 cm) true leaf, were used at test substrate. The plants were placed in a room with whitely adults. Adults were allowed to deposit eggs for 2-3 days. After a 2-3 day egg-laying period, plants were taken from the adult whitefly room. Adults were blown off leaves using a hand-held Devilbliss sprayer (23 psi). Plants with egg infestation (100-300 eggs per plant) were placed in a holding room for 5-6 days at 82° F. and 50% RH for egg hatch and crawler stage to develop. Four cotton plants were used for each treatment. Compounds (2 mg) were dissolved in 1 mL of acetone solvent, forming stock solutions of 2000 ppm. The stock solutions were diluted 10× with 0.025% Tween 20 in water to obtain a test solution at 200 ppm. A hand-held Devilbliss sprayer was used for spraying a solution to both sides of cotton leaf until runoff. Reference plants (solvent check) were sprayed with the diluent only. Treated plants were held in a holding room for 8-9 days at approximately 82° F. and 50% RH prior to grading. Evaluation was conducted by counting the number of live nymphs per plant under a microscope.

Compound: O=C(CCSCCC(F)(F)F)Nc1cn(-c2cccnc2)nc1Cl [Compound 5.3, N-(3-chloro-1-(pyridin-3-yl)-1H-pyrazol-4-yl)-3-((3,3,3-trifluoropropyl)thio)propanamide]
- MYZUPE rating (% Control of Mortality) [1]: A (80-100)
- BEMITA rating (% Control of Mortality) [2]: B (More than 0-Less than 80)

Compound: O=C(CCSCCC(F)(F)F)Nc1c[nH]nc1Cl [Compound 2.3, N-(3-chloro-1H-pyraxol-4-yl)-3-((3,3,3,trifluoropropyl)thio)propanamide]
- MYZUPE rating (% Control of Mortality) [1]: B (More than 0-Less than 80)
- BEMITA rating (% Control of Mortality) [2]: B (More than 0-Less than 80)

Compound: CCN(C(=O)CCSCCC(F)(F)F)c1cn(-c2cccnc2)nc1Cl [Compound 6.3, N-(3-chloro-1-(pyridin-3-yl)-1H-pyrazol-4-yl)-N-ethyl-3-((3,3,3-trifluoropropyl)thio)propanamide]
- MYZUPE rating (% Control of Mortality) [1]: A (80-100)
- BEMITA rating (% Control of Mortality) [2]: A (80-100)

Compound: CCN(C(=O)CC[S+]([O-])CCC(F)(F)F)c1cn(-c2cccnc2)nc1Cl (stereo not shown) [Compound 7.3, N-(3-chloro-1-(pyridin-3-yl)-1H-pyrazol-4-yl)-N-ethyl-3-((3,3,3-trifluoropropyl)sulfoxo)propanamide]
- MYZUPE rating (% Control of Mortality) [1]: A (80-100)
- BEMITA rating (% Control of Mortality) [2]: A (80-100)

Compound: Cl.Nc1c[nH]nc1Cl [Compound 1a, 3-chloro-1H-pyrazol-4-amine Hydrochloride]
- MYZUPE rating (% Control of Mortality) [1]: B (More than 0-Less than 80)
- BEMITA rating (% Control of Mortality) [2]: B (More than 0-Less than 80)

Reference: patent publication US9447048B2, “Processes for the preparation of pesticidal compounds” (Dow AgroSciences LLC, priority 2013, dated 2016)
